Holding throughout (assay type): cell-based
Assay [1] has as its system HT-29 (colorectal carcinoma). Kind of assay: In vitro cytotoxic activity (GI50), method (a), propidium iodide. The settings on record: read-out: HT-29 (GI50 μM). The procedure: (§1) Compounds were dissolved at 10 mM in DMSO. Dilution in vehicle to concentrations of 30, 10, 3, 1 and 0.3 μM were prepared immediately before assays. Depending on the cell line's growth characteristics, 4000-10000 cells were plated in two 96-wells pates (day 0) and incubated for 16 hours. The following day, propidium iodide was added to one of the two plates and fluorescence measured (Tz). Test compounds were added to the second plate, as well as vehicle control, and cells further incubated for 96 hours. Each compound was tested at each concentration and in triplicates. The equivalent cell number was determined after adding propidium iodide by measuring the signal by fluorescence (C for control).

In assay [2] the test system is MDA-MB-231 (mammary gland adenocarcinoma). The assay is described as above. The conditions noted are these: read-out: MDA-MB-231 (GI50 μM). The procedure: as §1
In assay [3] the test system is PC-3 (prostate adenocarcinoma). Described as above. The conditions noted are these: read-out: PC-3 (GI50 μM). How it is done:
as §1

The test system of assay [4] is SF268 (CNS). Described as above. The settings on record: read-out: SF-268 (GI50 μM). How it is done: as §1
The subject of assay [5] is HT-29, SF-268, PC-3, MDA-MB-231. Nature of the assay: Average GI50 over the four cell lines, method (a). The settings on record: for GI50: read-out: Average (GI50 μM); for anticancer activity compared with Compound 1: four cell lines. How it is done: as §1
The test system of assay [6] is HT-29 (colorectal carcinoma). Kind of assay: In vitro cytotoxic activity (GI50), method (b), propidium iodide. The conditions noted are these: Homo sapiens, 96 hrs. The procedure:
(§2) Row H was filled wih medium only (150 μL, negative control-medium).

In assay [7] the test system is MDA-MB-231 (mammary gland adenocarcinoma). Described as above. The conditions noted are these: Homo sapiens, 96 hrs. How it is done:
as §2

Assay [8] has as its system PC-3 (prostate adenocarcinoma). The assay is described as above. The settings on record: 96 hrs. How it is done:
as §2

Assay [9] concerns SF268 (CNS). The assay is described as above. The settings on record: Homo sapiens, SF-268, 96 hrs. How it is done:
as §2

In assay [10] the test system is HT-29, SF-268, PC-3, MDA-MB-231. Nature of the assay: Average GI50 over the four cell lines, method (b). How it is done:
as §2

[11] abbreviates: Homo sapiens, HT-29, method (a), 96 hours.
The mark [12] stands for this setting: Homo sapiens, MDA-MB-231, method (a), 96 hours.
The mark [13] stands for this setting: Homo sapiens, SF-268, method (a), 96 hours.
[14] abbreviates: method (a), values > 30 not considered.

Structures are written as SMILES.

As usually defined, the GI50 is the concentration giving 50% growth inhibition. With `CC(=O)Oc1cccc2c1Nc1c(OC(C)=O)cc(O)cc1N(CC=C(C)CCC=C(C)CCC=C(C)C)C2=O` [Compound 10, 4,6-diacetoxy-10-farnesyl-8-hydroxy-5,10-dihydro-dibenzo[b,e][1,4]diazepin-11-one], the concentration for 50% growth inhibition (GI50) in [1] (Homo sapiens, HT-29, 96 h) stood at 13 µM; in [2] (Homo sapiens, MDA-MB-231, 96 h), 1.55 µM; in [3] (96 h) it was 1.35 µM; in assay [4] (Homo sapiens, SF-268, 96 h), 2.02 µM; in assay [5] it was 4.48 µM.
As for `CC(C)CCCC(C)CCCC(C)CCN1C(=O)c2cccc(O)c2Nc2c(O)cc(O)cc21` (stereo not shown) [Compound 46, 10-(3,7,11-trimethyldodecyl)-4,6,8-trihydroxy-5,10-dihydro-dibenzo[b,e][1,4]diazepin-11-one], the GI50 came out at 4.26 µM in assay [1] (setting [11]); 0.59 µM in assay [2] (setting [12]); 0.9 µM in assay [3] (method (a), 96 hours); 0.72 µM in assay [4] (setting [13]); 1.62 µM in assay [5] (setting [14]). Also, the “anticancer activity compared with Compound 1” value in [5] (method (a)) is given as “generally more active than Compound 1”.
For the compound `COc1cccc2c1Nc1c(O)cc(O)cc1N(C/C=C(\C)CC/C=C(\C)CCC=C(C)C)C2=O` [Compound 4, 10-farnesyl-6,8-dihydroxy-4-methoxy-5,10-dihydro-dibenzo[b,e][1,4]diazepin-11-one], the GI50 in [1] (setting [11]) was 14.7 µM; in [2] (setting [12]) it was 11.3 µM; in [3] (method (a), 96 hours) it was 5.86 µM; in assay [4] (setting [13]), 4.97 µM; in [5] (setting [14]), 9.2 µM.
In the case of `COc1cccc2c1Nc1c(OC)cc(O)cc1N(CC=C(C)CCC=C(C)CCC=C(C)C)C2=O` [Compound 7, 10-farnesyl-8-hydroxy-4,6-dimethoxy-5,10-dihydro-dibenzo[b,e][1,4]diazepin-11-one], the GI50 turned out to be 14.1 µM in assay [1] (setting [11]); 17.4 µM in assay [2] (setting [12]); 14.6 µM in assay [3] (method (a), 96 hours); 18.5 µM in [4] (setting [13]); 16.1 µM in assay [5] (setting [14]).
The matching figures for `COc1cc(O)cc2c1Nc1c(O)cccc1C(=O)N2C/C=C(\C)CC/C=C(\C)CCC=C(C)C` [Compound 5, 10-farnesyl-4,8-dihydroxy-6-methoxy-5,10-dihydro-dibenzo[b,e][1,4]diazepin-11-one]: 14.4 µM, 20.5 µM, 15.6 µM, 13.4 µM and 16 µM.
As for `COc1cc(OC)c2c(c1)N(C/C=C(\C)CC/C=C(\C)CCC=C(C)C)C(=O)c1cccc(O)c1N2` [Compound 6, 10-farnesyl-4-hydroxy-6,8-dimethoxy-5,10-dihydro-dibenzo[b,e][1,4]diazepin-11-one], the GI50 in assay [1] (setting [11]) is greater than 30 µM; in assay [2] (setting [12]), 24.6 µM; in [3] (method (a), 96 hours), 19 µM; in assay [4] (setting [13]) it was 18.9 µM; in assay [5] (setting [14]) it was 20.8 µM.
With `CC(=O)Oc1cc(OC(C)=O)c2c(c1)N(CC=C(C)CCC=C(C)CCC=C(C)C)C(=O)c1cccc(O)c1N2` [Compound 9, 6,8-diacetoxy-10-farnesyl-4-hydroxy-5,10-dihydro-dibenzo[b,e][1,4]diazepin-11-one], the GI50 in assay [1] (Homo sapiens, HT-29, 96 h) came to 12.6 µM; in assay [2] (Homo sapiens, MDA-MB-231, 96 h) it was 2.48 µM; in assay [3] (96 h) it was 1.44 µM; in assay [4] (Homo sapiens, SF-268, 96 h) it was 1.88 µM; in assay [5], 4.6 µM.
With `CC(C)=CCC/C(C)=C/CC/C(C)=C/CN1C(=O)c2cccc(O)c2N(Cc2ccccc2)c2c(O)cc(O)cc21` [Compound 3, 5-benzyl-10-farnesyl-4,6,8-trihydroxy-5,10-dihydro-dibenzo[b,e][1,4]diazepin-11-one], the GI50 in assay [1] (setting [11]) amounted to 7.3 µM; in assay [2] (setting [12]), 6.32 µM; in assay [3] (method (a), 96 hours) it was 5.36 µM; in assay [4] (setting [13]), 5.73 µM; in [5] (setting [14]) it was 6.18 µM.
For the compound `COC(C)(CCC=C(C)C)CCC/C(C)=C/CN1C(=O)c2cccc(O)c2N(C)c2c(O)cc(O)cc21` (stereo not shown) [Compound 80, 10-(7-methoxy-3,7,11-trimethyldodeca-2,10-dienyl)-4,6,8-trihydroxy-5-methyl-5,10-dihydro-dibenzo[b,e][1,4]diazepin-11-one], the GI50 in [6] is 1.43 µM; in assay [7], 1.02 µM; in [8], 1.8 µM; in assay [9], 0.33 µM; in assay [10] (values > 30 not considered) it was 1.14 µM. The “anticancer activity compared with Compound 1” value in assay [10] (four cell lines) is “better anticancer activity than Compound 1”.
Consider `CC(=O)Oc1cc(OC(C)=O)c2c(c1)N(CC=C(C)CCC=C(C)CCC=C(C)C)C(=O)c1cccc(OC(C)=O)c1N2` [Compound 12, 4,6,8-triacetoxy-10-farnesyl-5,10-dihydro-dibenzo[b,e][1,4]diazepin-i 1-one], for which the 50% growth inhibitory concentration (GI50) in assay [1] (method (a), 96 hours) came out at 9.33 µM; in assay [2] (method (a), 96 hours), 2.79 µM; in [3] (method (a), 96 hours), 1.2 µM; in assay [4] (method (a), 96 hours), 1.95 µM; in assay [5] (setting [14]), 3.82 µM. Moreover, the “anticancer activity compared with Compound 1” value in assay [5] (method (a)) is given as “generally more active than Compound 1”.
Regarding `CC(=O)Oc1cc(O)c2c(c1)N(CC=C(C)CCC=C(C)CCC=C(C)C)C(=O)c1cccc(OC(C)=O)c1N2` [Compound 11, 4,8-diacetoxy-10-farnesyl-6-hydroxy-5,10-dihydro-dibenzo[b,e][1,4]diazepin-11-one], the concentration for 50% growth inhibition (GI50) was determined as 16 µM in assay [1] (Homo sapiens, HT-29, 96 h); 7.72 µM in assay [2] (Homo sapiens, MDA-MB-231, 96 h); 5.35 µM in [3] (96 h); 5.79 µM in [4] (Homo sapiens, SF-268, 96 h); 8.72 µM in [5].

For the origin of these results see patent US20060079512A1, “Dibenzodiazepinone analogues, processes for their production and their use as pharmaceuticals” (Ecopia BioSciences, Inc., priority 2003, published 2006).
